Assay results as given in US20080311613A1, “ARTIFICIAL SKIN SURFACE FILM LIQUIDS” (The Government of the U.S.A. as represented by the …, priority 2007, published 2008).
≈ marks a conversion by molar mass, not a printed value. Read-outs that look alike come from different tables or passages of the source. One block for each molecule: values may come before it.

Tests used:
[1] = Dissolution of vitamin constituents during preparation of artificial sweat; details: for dissolution on addition to the artificial sweat solution: before pH adjustment (pH 3.8 as prepared), 36° C.
Procedure: (§1) This large initial volume was useful in promoting dissolution of the constituents of the artificial sweat. […] Next, the desired masses of electrolytes and other ionic constituents (see Table 2) were added to the flask. Upon addition of the electrolytes and ionic constituents, the concentrations of chloride, calcium, and iron were measured to assess whether they matched predictions from weighing: 1.67×10^−2 M chloride, 6.93×10^−3 M calcium, and 0.54 ppm iron. Next, organic acids and carbohydrates were added to the solution (see Table 2) and the stability of chloride, calcium, and iron concentrations verified. Amino acids were added (see Table 2) then calcium and iron concentrations verified; chloride ion concentration was measured to determine if it matched the predicted value (1.7×10^−2 M) from weighing electrolytes, ionic constituents, and hydrogen chloride salts of some amino acids. Nitrogenous substances were added (see Table 2) and chloride, calcium, and iron concentrations re-verified.
(§2) Vitamin constituents were added to the solution last (see Table 2).
(§3) The pH of the artificial sweat solution was raised from 3.8 (as prepared) to a final pH of 5.3 by adding 5 M sodium hydroxide dropwise while monitoring using a calibrated pH electrode (InLab 413, Mettler-Toledo, Schwerzenbach, Switzerland) connected to a multi-meter (Seven Multi, Mettler-Toledo). […] The final volume of the solution was then brought up to 1.0 L using 18 megohm-cm distilled and deionized water and the final pH verified. To minimize opportunity for microbial growth, the final sweat solution was filtered through a 0.2 μm pore size filter (Cat. No. SCGVU11RE, Millipore Corp., Billerica, Mass.).

[2] = water, cited from earlier work
[3] = physchem; details: artificial sweat, 36 °C
Procedure: as §1, §2, §3

[4] = Long-term stability of artificial sebum by thin-layer chromatography; type: physicochemical; details: dry at 32° C., absence of vitamin E
Procedure: Lipids and formulation of synthetic sebum. Cholesteryl oleate, oleoyl oleate, palmityl palmitate, cholesterol and vitamin E ((±)-α-tocopherol) were purchased from Sigma-Aldrich (St. Louis, Mo.). Squalene and stearic acid were from Acros Organics (Geel, Belgium). Triolein and tristearin were purchased from MP Biochemicals (Solon, Ohio), and oleic acid was from Fisher Scientific (Fairlawn, N.J.). […] All nine lipids were dissolved in a 2:1 co-solvent mixture of chloroform and methanol and divided into two portions, one of which received vitamin E at 0.1% by weight to mimic human sebum content. After combining and mixing, portions of lipid solution were transferred to 16×125 mm glass tubes equipped with Teflon-lined screw caps. One set of tubes with lipid solution was maintained at 4° C. to characterize storage using refrigeration. […]
Thin-layer chromatography. All samples were analyzed using thin layer chromatography. Glass plates (20×20 cm) coated with 0.25-mm-thick silica gel G (Adsorbosil-plus-1; Alltech Associates; Deerfield Ill.) were washed with chloroform:methanol, 2:1, activated in a 110° C. oven, and the adsorbent was scored into 6-mm-wide lanes. […] After two hrs, charring was complete, and the chromatograms were quantitated by photodensitometry. […]

dissolution on addition to the artificial sweat solution [1]: did not dissolve completely
Structure (SMILES): O=C(O)c1cccnc1 [nicotinic acids, Nicotinic Acid (C6H5NO2)]

dissolution on addition to the artificial sweat solution [1]: did not dissolve completely
Structure (SMILES): CC(C)(CO)[C@@H](O)C(=O)NCCC(=O)O [pantothenic, D-Pantothenic Acid (C9H17NO5)]

Structure (SMILES): Cc1cc2nc3c(=O)[nH]c(=O)nc-3n(C[C@H](O)[C@H](O)[C@H](O)COP(=O)(O)O)c2cc1C [riboflavin 5′-(dihydrogen phosphate), reference compound]
solubility ([2]; pH=5.6): 68 mg/mL

solubility [3]: ≥ 2000 µM
concentration in artificial sweat relative to that predicted by solubility in water ([1]; artificial sweat vs water): two orders of magnitude greater
Structure (SMILES): Cc1cc2nc3c(=O)[nH]c(=O)nc-3n(C[C@H](O)[C@H](O)[C@H](O)CO)c2cc1C [riboflavin, Riboflavin (C17H20N4O6)]
solubility [2]: 0.3 mg/mL (≈ 797 µM)

day by which completely oxidized [4]: ≤ 21 days
Structure (SMILES): CC(C)=CCC/C(C)=C/CC/C(C)=C/CC/C=C(\C)CC/C=C(\C)CCC=C(C)C [squalene]
